Our source for the TGI and GI50 values is PubChem BioAssay (NCI).

Among the test systems are UACC-257 melanoma; A498 renal; LOX IMVI melanoma; OVCAR-4 ovarian; 786-0 renal; SF-295 CNS; ACHN renal; HCT-116 colon; SF-539 CNS; OVCAR-8 ovarian.
Common to all, as to assay: NCI anticancer screen, dose series, 48 h

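Method: 48-hour compound exposure of cells in 96-well plates, five concentrations, linear interpolation of endpoints. At the GI50, growth is halved. TGI marks complete inhibition of growth.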

Take `Nc1nc(Cl)cc(Oc2ccc(Cl)cc2)n1`: the TGI in the experiment with UACC-257 melanoma, in the experiment with A498 renal, with LOX IMVI melanoma, in the experiment on OVCAR-4 ovarian, with 786-0 renal and in the experiment with SF-295 CNS was above 100 µM each time. The TGI in the experiment with ACHN renal, in the experiment with HCT-116 colon, in the experiment with SF-539 CNS and with OVCAR-8 ovarian was above 100 µM throughout.
For the molecule `CCCN1CCN(c2ccc3nc(-c4ccc5nc(-c6ccc(OCC)cc6)[nH]c5c4)[nH]c3c2)CC1`, in the experiment with A498 renal, the GI50 is 1.3 µM and the TGI amounted to 3.01 µM. In the experiment with ACHN renal, the GI50 is 1.15 µM and the TGI amounted to 2.4 µM.
Regarding `N#Cc1ccccc1C#C/C=C\C#Cc1ccccn1`, the TGI in the experiment with UACC-257 melanoma was 28.8 µM; in the experiment with OVCAR-4 ovarian, above 100 µM; in the experiment with 786-0 renal, 41.9 µM; in the experiment on SF-295 CNS, 52.7 µM; in the experiment with ACHN renal, above 100 µM; with HCT-116 colon it was 24.3 µM. The TGI was determined as 45.1 µM with SF-539 CNS and 30.3 µM in the experiment with OVCAR-8 ovarian.
Consider `O=[N+]([O-])c1cc(-c2ccc([As](=O)(O)O)cc2)ccc1[As](=O)(O)O`, for which the TGI in the experiment with UACC-257 melanoma, in the experiment on A498 renal, in the experiment with LOX IMVI melanoma, with OVCAR-4 ovarian, with 786-0 renal and in the experiment with SF-295 CNS was above 100 µM throughout. The TGI in the experiment with ACHN renal, in the experiment on HCT-116 colon and in the experiment on OVCAR-8 ovarian was above 100 µM each time.
In the case of `CN1CN(c2ccccc2)C2(CCN(C(=O)OC(C)(C)C)CC2)C1=O`, the TGI with UACC-257 melanoma, in the experiment on A498 renal, in the experiment with LOX IMVI melanoma, in the experiment on OVCAR-4 ovarian, in the experiment on 786-0 renal and with SF-295 CNS was above 100 µM in each case. Besides, the TGI with ACHN renal, with HCT-116 colon, with SF-539 CNS and in the experiment with OVCAR-8 ovarian was above 100 µM in each case.
For the molecule `O=C(N/N=C/c1ccc(O)cc1)NNCCO`, the TGI in the experiment with UACC-257 melanoma, in the experiment on A498 renal, in the experiment with 786-0 renal, with SF-295 CNS, in the experiment with HCT-116 colon and in the experiment with SF-539 CNS was above 100 µM in each case. The molecule further had a TGI in the experiment with OVCAR-8 ovarian above 100 µM.
Consider `O=C(/C=C/c1cc2ccccc2[nH]c1=O)c1ccc(O)cc1`, for which the GI50 in the experiment on UACC-257 melanoma is 3.87 µM; in the experiment with A498 renal, 8.44 µM; in the experiment with LOX IMVI melanoma it was 2.47 µM; in the experiment on SF-295 CNS it was 7.04 µM; in the experiment on ACHN renal, 2.67 µM; with HCT-116 colon it was 1.94 µM. In addition, the GI50 in the experiment on SF-539 CNS is 2.55 µM; in the experiment with OVCAR-8 ovarian it was 3.23 µM. The TGI in the experiment with UACC-257 melanoma is 16 µM; in the experiment with A498 renal it was 21.3 µM; with LOX IMVI melanoma, 12.7 µM; in the experiment with SF-295 CNS, 44 µM; with ACHN renal, 8.86 µM; with HCT-116 colon, 4.38 µM. Besides, the TGI came to 8.64 µM in the experiment on SF-539 CNS and 21.1 µM in the experiment with OVCAR-8 ovarian.
With `CCOP(=O)(OCC)C(Cc1cn(S(=O)(=O)c2ccc(C)cc2)cn1)C(=O)O` (stereo not given), the TGI with A498 renal, in the experiment on LOX IMVI melanoma, with OVCAR-4 ovarian, in the experiment on 786-0 renal, in the experiment with SF-295 CNS and in the experiment on ACHN renal was above 100 µM throughout. The TGI with HCT-116 colon, with SF-539 CNS and with OVCAR-8 ovarian was above 100 µM throughout.
On to `CCN1CC2(CO)CCC(OC)C34C5CC6C(OC)CC(O)(C5C6OC)C(O)(C(OC)C23)C14` (stereo not given), for which the TGI in the experiment on UACC-257 melanoma, with A498 renal, in the experiment with LOX IMVI melanoma, in the experiment with OVCAR-4 ovarian, in the experiment with SF-295 CNS and in the experiment on HCT-116 colon was above 375 µM throughout. Besides, the TGI in the experiment with SF-539 CNS and in the experiment on OVCAR-8 ovarian was above 375 µM each time.
Turning to `O=C(NC12CC3CC(CC(C3)C1)C2)n1cnc2c(Cl)ncnc21`, the TGI in the experiment with UACC-257 melanoma is above 100 µM; with A498 renal it was above 100 µM; in the experiment with LOX IMVI melanoma, 37.9 µM; in the experiment with 786-0 renal, above 100 µM; with SF-295 CNS, above 100 µM; in the experiment with ACHN renal, 50.8 µM. In addition, the TGI was above 100 µM in the experiment on HCT-116 colon, 81.7 µM with SF-539 CNS and 66.4 µM in the experiment on OVCAR-8 ovarian.
With `COc1c(C(=O)CC2c3c(cc4oc(C)cc(=O)c4c3OC)OC(=N)C2c2nc3ccccc3[nH]2)c(O)c(OC)c2occc12` (stereo not given), the TGI in the experiment with UACC-257 melanoma, with A498 renal, with LOX IMVI melanoma, in the experiment with OVCAR-4 ovarian, in the experiment on 786-0 renal and in the experiment on SF-295 CNS was above 100 µM throughout. The TGI in the experiment on ACHN renal, in the experiment on HCT-116 colon and in the experiment on OVCAR-8 ovarian was above 100 µM each time.
With `COc1ccc(CNCCN2C(=O)c3ccc4c5c(ccc(c35)C2=O)C(=O)N(CCNCc2ccc(OC)c(OC)c2OC)C4=O)c(OC)c1OC`, the GI50 was 0.113 µM in the experiment on UACC-257 melanoma, 0.0762 µM in the experiment on OVCAR-4 ovarian and 0.16 µM in the experiment on OVCAR-8 ovarian. Also, the TGI in the experiment with UACC-257 melanoma turned out to be 0.303 µM; in the experiment on OVCAR-4 ovarian it was 0.146 µM; in the experiment with OVCAR-8 ovarian, 0.648 µM.
Turning to `CN(C)CCNC(=O)c1cccc2c(NC(CCCN=C(N)N)C(=O)O)c3ccccc3nc12` (stereo not given), the TGI in the experiment on A498 renal is 61.3 µM; in the experiment with LOX IMVI melanoma it was above 100 µM; in the experiment on OVCAR-4 ovarian it was 27.7 µM; in the experiment with 786-0 renal, above 100 µM; in the experiment on SF-295 CNS, 41.9 µM; with ACHN renal, above 100 µM. Also, the TGI in the experiment on HCT-116 colon is 67.8 µM; in the experiment on OVCAR-8 ovarian it was 30.5 µM.
In the case of `Cn1c(SCc2ccc([N+](=O)[O-])cc2)nnc1C12CC3CC(CC(C3)C1)C2`, the TGI in the experiment on A498 renal, with LOX IMVI melanoma, in the experiment on OVCAR-4 ovarian, with 786-0 renal, with SF-295 CNS and with ACHN renal was above 10 µM throughout. In addition, the TGI in the experiment on HCT-116 colon, with SF-539 CNS and with OVCAR-8 ovarian was above 10 µM in each case.
For `CC(NC(=O)C(NC(=O)C(NC(=O)C(F)(F)F)C(C)C)C(C)C)C(=O)Oc1c(Cl)c(Cl)c(Cl)c(Cl)c1Cl` (stereo not given), the TGI in the experiment on UACC-257 melanoma, with A498 renal, in the experiment with LOX IMVI melanoma, with OVCAR-4 ovarian, in the experiment with ACHN renal and in the experiment on HCT-116 colon was above 100 µM in each case. In addition, the TGI in the experiment with SF-539 CNS and in the experiment on OVCAR-8 ovarian was above 100 µM each time.
